From patent publication US20160250277A1, “[…] OPIOID RECEPTOR AGONISTS FOR PREVENTING, INHIBITING OR TREATING NAUSEA AND VOMITING” (CARA THERAPEUTICS, INC., priority 2013, published 2016) come the findings set out here.

In data set [1] the test system is pro-inflammatory mediators. In words: production and release of pro-inflammatory mediators. Particulars: preclinical. The method, then: (§1) The analgesic effect of CR845 was recordable within 15 minutes post-administration and lasted for up to 18 hours following single-dose administration.
A further data set concerns human subjects. Particulars: in vivo.
The subject of data set [2] is acute and chronic visceral, inflammatory and neuropathic pain. In words: standard preclinical pain models. Format: in vivo. On the procedure: as §1
In data set [3] the test system is “Chung Model” of neuropathic pain. Nature of the data set: “Chung Model” of neuropathic pain (paw withdrawal threshold). In kind it is in vivo, rats. Particulars: for blockade of CR845 effect by kappa antagonist into injured paw: intraplantar 0.2 mg, 15 min prior to CR845 1 mg/kg, rats. On the procedure: FIG. 1: Efficacy of CR845 in “Chung Model” of neuropathic pain is blocked with Peripheral (Intrapaw) administration of a kappa antagonist (norBNI) in rats. *** denotes p<0.001 compared to vehicle-treated controls (two-way ANOVA). Vehicle or Nor-BNI was administered intraplantarly (0.2 mg) 15 min prior to CR845. Injection (1 mg/kg). N=6 male rats/group, mean±SEM.
The peripheral mechanism of action of CR845 is supported preclinically by both biochemical in vitro assays and in vivo functional pharmacological studies. […] Moreover, in standard preclinical pain models, such as the “Chung Model” of neuropathic pain, the analgesic action of CR845 was blocked with kappa opioid receptor antagonists administered directly to the local site of injury, indicating a peripheral site of action for CR845 (FIG. 1). In the “Chung Model”, neuropathic pain is induced experimentally by ligating spinal nerves mediating sensation for a hind limb. […] Sets of different thickness filaments are used to test sensitivity, each of which is designed to produce a given force (in grams) upon bending after contact. By testing with these filaments, the minimum force to evoke a withdrawal response defines the paw withdrawal threshold. The nerve injury produces a marked reduction in paw withdrawal thresholds (increased sensitivity to force) in response to probing with the filaments.

Data set [4] can be described thus: pharmacokinetic studies, drug in extracted brain tissue. Format: in vivo. The conditions noted are these: animals, analgesic and supra-analgesic doses.
The subject of data set [5] is patients following bunionectomy surgery. The conditions noted are these: human, in vivo.
In data set [6] the test system is patients undergoing laparoscopic hysterectomy. Particulars: human, in vivo.

As for `CC(C)C[C@@H](NC(=O)[C@@H](Cc1ccccc1)NC(=O)[C@H](N)Cc1ccccc1)C(=O)N[C@H](CCCCN)C(=O)N1CCC(N)(C(=O)O)CC1` [CR845, D-Phe-D-Phe-D-Leu-D-Lys-[ω(4-aminopiperidine-4-carboxylic acid)]-OH], the “production and release of pro-inflammatory mediators” value in data set [1] is “decreased the production and release of pro-inflammatory mediators”. In addition, the drug-related respiratory depression result with human subjects is given as “no evidence of drug-related respiratory depression”. Further, the “duration of analgesic effect” value in data set [2] (following single-dose administration) was “up to 18 hours”. For the same molecule, the “onset of analgesic effect post-administration” value in data set [2] (preclinical pain models) was no more than 15 min. Also, the “attenuation of pain in preclinical pain models” value in data set [2] (standard preclinical pain models) is “successfully attenuated acute and chronic visceral, inflammatory and neuropathic pain in a dose-dependent manner”. Also, the “paw withdrawal threshold (neuropathic pain)” value in data set [3] (I.V. CR845 1 mg/kg, male rats) was “reduces this neuropathic pain as demonstrated by a subsequent increase in the withdrawal threshold”. Moreover, the “concentration of drug in extracted brain tissue” value in data set [4] is given as “no measurable concentrations of drug in extracted brain tissue”. Moreover, in data set [5], the SPID0-36 vs placebo result is “statistically significant”; the SPID0-48 vs placebo entry was “statistically significant”; the “SPID scores 0-24, 0-36, 0-48 vs placebo” value is listed as “Numerical improvements in SPID scores”; the “acute psychiatric side effects” value is on record as “no evidence of acute psychiatric side effects”. In data set [5], the “cases of somnolence reported” value was “seven”; the “mean PID from baseline at each time interval across 48 hours vs placebo” value was “numerically superior”; the “mean plasma sodium concentration vs normal range” value is on record as “not outside the normal physiological range”; the “most frequent TEAEs (greater than 10%)” value is “transient facial tingling and somnolence”. Also, in data set [5], the “pain intensity differences 0-12 hour time interval vs placebo” value is “Statistically significant reductions in pain intensity differences”, the “pain intensity differences 0-36 hour time interval vs placebo” value was “Statistically significant reductions in pain intensity differences”, the “reduction of incidence of nausea vs placebo” value is listed as 60% and the “reduction of incidence of vomiting vs placebo” value stood at 80%. The “rise of mean plasma sodium concentration from baseline” value in data set [5] is “approximately 3%”. Further, the SPID0-24 vs placebo result in data set [5] (iv, 0.005 mg/kg) was “statistically significant reduction in pain intensity compared to placebo”. Moreover, in data set [6], the “PID for 0-4, 0-8 and 0-16 hour time intervals vs Placebo/Placebo” value is “statistically significant improvements”; the “Responders in global evaluation of study medication vs placebo” value was “higher percentage of patients”; the “SPID over 0-8, 0-12 and 0-16 time periods vs Placebo/Placebo” value was “reduced pain intensity compared to the Placebo/Placebo group in a statistically significant manner”; the “greater reduction in pain intensity at 24 hours vs Placebo/Placebo” value is recorded as “approximately 60%”. Moreover, in data set [6], the “improvement in mean SPID values 0-4 hour vs Placebo/Placebo” value was determined as 3.5 fold, the “mean TOTPAR0-2 (pain relief within first 2 hours) vs Placebo/Placebo” value is listed as “statistically superior pain relief”, the “mean TOTPAR 0-12 hour interval vs Placebo/Placebo” value was “reached statistical significance” and the “mean TOTPAR scores across all intervals vs Placebo/Placebo” value is on record as “numerically superior”. In data set [6], the “pain intensity for 0-8 and 0-16 hour time intervals vs Placebo/Placebo” value is “statistically significant decreases in pain intensity”; the “patients who experienced nausea” value is reported as 26.1%; the “patients who experienced vomiting” value came out at 1.7%; the “pruritus reported vs placebo” value was “less pruritus”. In data set [6], the “reduction of incidence of nausea vs placebo” value is “approximately 50%”; the “reduction of incidence of vomiting vs placebo” value is listed as roughly 80%; the “reported pain relief (TOTPAR) for 0-4, 2-4 and 0-8 hour time periods” value is reported as “statistically significant improvements in reported pain relief”. Moreover, in data set [6] (iv), the “mean PID from baseline at each time interval vs Placebo/Placebo” value is recorded as “numerically superior”. In addition, in data set [6] (iv, 0.04 mg/kg), the “blood sodium increase (hypernatremia), share of total patients” value was found to be 14%.
Consider `Oc1ccc2c3c1O[C@H]1c4[nH]c5c(c4C[C@@]4(O)[C@@H](C2)N(CC2CC2)CC[C@]314)C[C@@]1(O)[C@H]2Cc3ccc(O)c4c3[C@@]1(CCN2CC1CC1)[C@H]5O4` [nor-BNI, nor-binaltorphamine], for which the “blockade of CR845 effect by kappa antagonist into injured paw” value is “significantly reduces the effect of CR845” in data set [3] and “blocked” in data set [3] (listed as norBNI).
